For data set [1], the target named is T1, C-C chemokine receptor type 3 (Homo sapiens, UniProt P51677).
T1 sequence (P51677 whole entry): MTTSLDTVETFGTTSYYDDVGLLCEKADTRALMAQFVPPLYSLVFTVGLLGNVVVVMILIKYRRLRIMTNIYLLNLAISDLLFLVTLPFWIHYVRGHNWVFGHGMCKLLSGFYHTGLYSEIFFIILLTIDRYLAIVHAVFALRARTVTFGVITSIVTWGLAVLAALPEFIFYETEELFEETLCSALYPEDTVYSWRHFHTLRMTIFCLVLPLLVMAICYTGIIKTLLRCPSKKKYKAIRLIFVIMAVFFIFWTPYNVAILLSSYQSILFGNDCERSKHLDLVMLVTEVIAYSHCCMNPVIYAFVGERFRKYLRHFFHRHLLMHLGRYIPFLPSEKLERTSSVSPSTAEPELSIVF
Kind of data set: Inhibition of CCR3 receptor.

Data set [2] can be described thus: Aqueous solubility of the compound. It is filed as physicochemical. As to conditions: water (aqueous).
The target in data set [3] is T2, Gonadotropin-releasing hormone receptor (Homo sapiens, UniProt P30968).
T2 sequence (P30968 whole entry): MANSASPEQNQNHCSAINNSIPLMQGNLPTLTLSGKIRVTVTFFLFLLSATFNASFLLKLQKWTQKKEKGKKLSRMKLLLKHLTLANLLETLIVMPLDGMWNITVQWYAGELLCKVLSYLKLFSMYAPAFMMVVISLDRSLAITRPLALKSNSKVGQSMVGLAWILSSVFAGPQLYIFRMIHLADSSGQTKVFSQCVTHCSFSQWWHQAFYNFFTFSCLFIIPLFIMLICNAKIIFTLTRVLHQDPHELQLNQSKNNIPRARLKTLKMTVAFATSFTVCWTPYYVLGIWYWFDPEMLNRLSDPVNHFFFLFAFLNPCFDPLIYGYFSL
Kind of data set: Inhibition of GnRH receptor.

Converted amounts (≈) assume the structure as drawn.

In general, Ki refers to the dissociation constant of the complex between target and ligand, obtained from inhibition or displacement. Lower therefore signals a stronger hold on the target. In the case of `Fc1ccc2c(c1)nc(CC(F)(F)F)n2C1CCNCC1`, in data set [1], the inhibition constant Ki was 100 nM.

As a reminder, the solubility is how much of the substance goes into solution per volume. The low end stands for little dissolved substance, the high end for much dissolved substance. In data set [2], `CCCn1cc(CN2CCN(c3cccc4[nH]c(-c5ccc(C(C)(C)C)cc5)nc34)CC2)nc1C` gave a solubility of 100 µg/mL (≈ 212 µM).

As for `Fc1ccc(SCCCN2CCC(n3c(CC(F)(F)F)nc4cc(F)ccc43)CC2)cc1`, the affinity in data set [1], expressed as Ki, was 9 nM.

By IC50 is commonly meant the concentration that gives 50% inhibition. Low values mean greater potency, high ones weaker potency. With `CCc1cc(CN2CCN(c3cccc4[nH]c(-c5ccc(C(C)(C)C)cc5)nc34)CC2)nn1C`, the half-inhibitory concentration (IC50) in data set [3] is 7 nM. The compound also yielded a solubility in data set [2] of 55 µg/mL (≈ 120 µM).

The record behind these values is ChEMBL document CHEMBL2157888, “The therapeutic journey of benzimidazoles: a review” (Bioorg Med Chem, 2012).
